Data published in article PMC6218659, “Structures of DPAGT1 Explain Glycosylation Disease Mechanisms and Advance TB Antibiotic Design” (Cell, 2018).
Numbering of substitutions follows the chain as printed. In brackets after ≈: the same amount, converted by molar mass. Where a name gives a salt, the structure may show the parent alone. Read-outs that look alike come from different tables or passages of the source.

Experiments:
[1] = molecular target: T1, DPAGT1 Arg301His (Homo sapiens, UniProt Q9H3H5, R301H); test: Thermostability assay (label free differential scanning fluorimetry); type: binding, H. sapiens; conditions: 50 μM compound
T1 construct: combined with the LIC-adapted primers to amplify the complete DPAGT1 gene, including the desired mutations; 6xHis purification tag with TEV site (N, cleaved yes); made in house; host or cells: Spodoptera frugiperda Sf9 insect cells (baculovirus)
T1 sequence (Q9H3H5 1-408 R301H): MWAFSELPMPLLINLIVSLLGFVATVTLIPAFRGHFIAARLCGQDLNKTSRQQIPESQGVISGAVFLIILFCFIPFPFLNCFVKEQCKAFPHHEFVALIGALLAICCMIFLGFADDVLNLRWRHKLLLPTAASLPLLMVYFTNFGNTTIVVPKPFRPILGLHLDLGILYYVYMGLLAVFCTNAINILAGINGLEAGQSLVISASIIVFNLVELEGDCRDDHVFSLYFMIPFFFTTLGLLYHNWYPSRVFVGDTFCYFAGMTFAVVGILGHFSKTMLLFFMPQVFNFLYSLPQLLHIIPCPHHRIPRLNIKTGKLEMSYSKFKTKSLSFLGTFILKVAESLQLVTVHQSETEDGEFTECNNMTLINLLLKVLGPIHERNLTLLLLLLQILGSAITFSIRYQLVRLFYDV
Protocol: (§1) Samples with a volume of 40 μl were prepared containing 0.5 mg/ml protein and 50 μM compound or 5% DMSO in GFB. A glass capillary was dipped into each sample, with the capillary held horizontally to ensure that the capillary was full of the sample. The capillaries were placed on the capillary holder on the Nanotemper Prometheus. Technical triplicates of each sample were prepared, and each experiment was conducted with biological triplicates of each protein. PR.ThermControl software was used to run the experiment and analyse the data. A melting curve from 20 °C – 95 °C at 5 °C/min was performed. The minimum of the first derivative of the 330/350nm ratio was used to determine the Tm1/2.

[2] = molecular target: T2, DPAGT1 Tyr170Cys (Homo sapiens, UniProt Q9H3H5, Y170C); test: as above; type: binding, H. sapiens; conditions: 50 μM compound
T2 construct: combined with the LIC-adapted primers to amplify the complete DPAGT1 gene, including the desired mutations; 6xHis purification tag with TEV site (N, cleaved yes); made in house; host or cells: Spodoptera frugiperda Sf9 insect cells (baculovirus)
T2 sequence (Q9H3H5 1-408 Y170C): T1 sequence (Q9H3H5 1-408 R301H) with Y170C, H301R
Protocol: as §1

[3] = tested on: B. subtilis EC1524; test: Micro-broth dilution and drop plate antimicrobial susceptibility test; type: cell-based, Bacillus subtilis; conditions: for Relative Therapeutic Index (RTI), B. subtilis EC1524: minimal lethal dose / MIC, 800 μg mL-1 used for >400
Protocol: (§2) In a sterile 96-well plate, serial dilutions were made with the test substance to final volume of 50 μl. Inoculum was then prepared in Mueller-Hinton broth to 0.5 McFarland and diluted before adding 50 μl to the well to make ∼1x10^5 CFU/ml. The culture plate was incubated at 35 °C for 20-24 hrs. A positive growth control and sterility wells were also prepared along with the culture wells. Absorbance at OD600 was taken using BMG Labtech SPECTROstar Omega spectrophotometer. MIC is determined by the lowest concentration without growth. IC50 is determined from plotting a dose-response curve, see Data Analysis below. To determine the MBC, using a multi-channel pipette, 1 μl of culture broth was taken from the same 96-well microdilution growth plate and carefully inoculated on surface of MH agar plate. The plate is then incubated for additional 20 hrs. at 35 °C. The MBC value is the lowest concentration without observed growth on the agar.

[4] = tested on: B. cereus ATCC11778; test: as above; type: cell-based, Bacillus cereus; conditions: for Relative Therapeutic Index (RTI), B. cereus NRRL 11778: minimal lethal dose / MIC, 800 μg mL-1 used for >400
Protocol: as §2

[5] = tested on: Mtb H37Rv ATCC27294; test: Minimum inhibitory concentrations testing against Mtb; type: cell-based, Mycobacterium tuberculosis; conditions: for MIC: Mycobacterium tuberculosis, 168 h
[6] = tested on: HEK293 cells; test: Cell proliferation assay (MTS); type: cell-based, human; conditions: for LD50 values, HEK293: MTS cell proliferation assay, 24 hrs, highest concentration 400 µg mL-1; for Minimal Lethal Dose, HEK 293: serial 2-fold dilutions (Table S6)
Protocol: (§3) In sterile 96-well plate, each well was seeded with ∼1x10^5 cells. The cells are then grown confluent overnight in 100 μl DMEM with 10% FBS. The medium is replenished with DMEM with 2% FBS and added vehicle control or test substance the next day. For test substance in methanol, stock was added to 25 μl of DMEM with 2% FBS or PBS and placed in the laminar flow hood to let the methanol evaporate (about 1-3 hrs). Once the methanol has evaporated, DMEM with 2% FBS was added to final volume of 100 μl of desired test concentration. […] Cells are grown for additional 24 hrs. The cell viability was determined by using Promega CellTiter 96^© AQueous One Solution Cell Proliferation Assay (3-(4,5-dimethylthiazol-2-yl)-5-(3-carboxymethoxyphenyl)-2-(4-sulfophenyl)-2H-tetrazolium, inner salt; MTS) System following the manufacture protocol.

[7] = tested on: HepG2 cells; test: Cell proliferation assay (MTS); type: cell-based, human; conditions: for LD50 values, HepG2: MTS cell proliferation assay, 24 hrs, highest concentration 400 µg mL-1; for Minimal Lethal Dose, HepG2: serial 2-fold dilutions (Table S6)
Protocol: as §3

[8] = tested on: Raji cells; test: Cell proliferation assay (MTS); type: cell-based, human; conditions: 24 hrs
Protocol: as §3

[9] = tested on: E. coli ATCC25922; test: Micro-broth dilution and drop plate antimicrobial susceptibility test; type: cell-based; conditions: Escherichia coli
Protocol: as §2

[10] = tested on: P. aeruginosa ATCC27853; test: as above; type: cell-based; conditions: Pseudomonas aeruginosa
Protocol: as §2

[11] = tested on: S. aureus ATCC29219; test: as above; type: cell-based; conditions: Staphylococcus aureus
Protocol: as §2

[12] = tested on: Mtb H37Rv ATCC27294; test: Macromolecular incorporation assay (radiolabeled glucosamine); conditions: within 48 h, 10x MIC
[13] = Bacillus subtilis, EC1524, read-out: Minimal Inhibitory Concentration, B. subtilis EC1524
[14] = Bacillus cereus, ATCC 11778 / NRRL11778, read-out: Minimal Inhibitory Concentration, B. cereus NRRL 11778

N[C@H]1[C@H](O[C@H]2O[C@H](CO)[C@@H](O)[C@H](O)[C@H]2N)O[C@H](C[C@@H](O)[C@H]2O[C@@H](n3ccc(=O)[nH]c3=O)[C@H](O)[C@@H]2O)[C@H](O)[C@@H]1O [TUN, α-D-glucosamine-(1”-11')-tunicamyl uracil dihydrochloride]
Thermostability (Tm1/2) with added compound [1]: 81.2±0.5 °C | Thermostability (Tm1/2) with added compound [2]: 83.1±0.8 °C | MIC [3, 13]: 100 µg/mL | Relative Therapeutic Index (RTI), B. subtilis EC1524 [3]: 8 | MIC [4, 14]: 100 µg/mL | Relative Therapeutic Index (RTI), B. cereus NRRL 11778 [4]: 8 | MIC ([5]; 1-week in 7H9/ADC/Tw (Table S6), read-out: Minimal Inhibitory Concentration, Mtb H37RV a): > 60 µg/mL | MIC ([5]; 1-week in GAST/Fe (Table S6), read-out: Minimal Inhibitory Concentration, Mtb H37RV b): > 60 µg/mL | MIC ([5]; Mtb H37Rv, minimal growth medium, read-out: 1-week MIC in GAST/Fe): > 60 µg/mL | MIC ([5]; Mtb H37Rv, rich 7H9-based growth medium, read-out: 1-week MIC in 7H9/ADC/Tw): > 60 µg/mL | LD50 values, HEK293 [6]: N/A (N/A = not available. No or low cytotoxicity observed at highest, saturating concentration tested (400 µg mL-1)) | Minimal Lethal Dose, HEK 293 [6]: > 400 µg/mL | LD50 values, HepG2 [7]: N/A (N/A = not available. No or low cytotoxicity observed at highest, saturating concentration tested (400 µg mL-1)) | Minimal Lethal Dose, HepG2 [7]: > 400 µg/mL | LD50 values, Raji [8]: 698.3 µg/mL

CCCCCCCC(=O)N[C@H]1[C@H](O[C@H]2O[C@H](CO)[C@@H](O)[C@H](O)[C@H]2NC(=O)CCCCCCC)O[C@H](C[C@@H](O)[C@H]2O[C@@H](n3ccc(=O)[nH]c3=O)[C@H](O)[C@@H]2O)[C@H](O)[C@@H]1O [TUN-8,8, Di-N-octanoyl-tunicamycin]
IC50 ([3]; Bacillus subtilis, EC1524): 0.2 µg/mL (≈ 0.244 µM) | MBC ([3]; Bacillus subtilis, EC1524): > 0.78 µg/mL | MIC ([3]; Bacillus subtilis, EC1524): 0.65 ± 0.22 µg/mL (≈ 0.794 µM) | MIC [3, 13]: 0.78 µg/mL (≈ 0.952 µM) | Relative Therapeutic Index (RTI), B. subtilis EC1524 [3]: 1026 | IC50 ([4]; Bacillus cereus, ATCC11778): 0.78 µg/mL (≈ 0.952 µM) | MBC ([4]; Bacillus cereus, ATCC11778): > 50 µg/mL | MIC ([4]; Bacillus cereus, ATCC11778): 5.2 ± 1.8 µg/mL (≈ 6.35 µM) | MIC [4, 14]: 6.25 µg/mL (≈ 7.63 µM) | Relative Therapeutic Index (RTI), B. cereus NRRL 11778 [4]: 128 | IC50 [9]: 123 µg/mL (≈ 150 µM) | MBC [9]: 400 µg/mL (≈ 488 µM) | MIC [9]: 330 ± 120 µg/mL (≈ 403 µM) | IC50 [10]: 46.6 µg/mL (≈ 56.9 µM) | MBC [10]: > 400 µg/mL | MIC [10]: 83 ± 29 µg/mL (≈ 101 µM) | IC50 [11]: 58.4 µg/mL (≈ 71.3 µM) | MBC [11]: 400 µg/mL (≈ 488 µM) | MIC [11]: 170 ± 60 µg/mL (≈ 208 µM) | Relative Therapeutic Index (RTI), Mtb H37RV a [5]: 1140 | MIC ([5]; read-out: 1-week MIC in 7H9/ADC/Tw): 0.7 ± 3.3 µg/mL (≈ 0.855 µM) | MIC ([5]; read-out: 1-week MIC in GAST/Fe): 0.14 ± 0.1 µg/mL (≈ 0.171 µM) | MIC ([5]; read-out: Minimal Inhibitory Concentration, Mtb H37RV a): 0.7 µg/mL (≈ 0.855 µM) | MIC ([5]; read-out: Minimal Inhibitory Concentration, Mtb H37RV b): 0.14 µg/mL (≈ 0.171 µM) | LD50 values, HEK293 [6]: N/A (N/A = not available. No or low cytotoxicity observed at highest, saturating concentration tested (400 µg mL-1)) | Minimal Lethal Dose, HEK 293 [6]: > 400 µg/mL | LD50 values, HepG2 [7]: N/A (N/A = not available. No or low cytotoxicity observed at highest, saturating concentration tested (400 µg mL-1)) | Minimal Lethal Dose, HepG2 [7]: > 400 µg/mL | LD50 values, Raji [8]: 211.05 ± 125.94 µg/mL | glucosamine incorporation [12]: reduced
